Source: PubChem BioAssay AID1918943 (Molecular Pharmacology Branch, DTP, NCI, 2023)
Several values for one entry are separate records, joined by “and”; a condition that tells them apart may be missing. Equal values may be shown once.

Tested on: 855422-203-R-J1-PDC complex spheroid viability
Experiment: Anticancer human tumor 855422-203-R-J1-PDC patient-derived bladder carcinoma cell line growth inhibition
Settings: for viability, T/C: stronger effect = lower value
How it was run: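 Complex spheroids of tumor cells with HUVEC and human MSCs, exposed to iadademstat combined with other agents. Each agent tested in half-log steps from near clinical Cmax (else 10 microM top), DMSO ≤0.25%.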

[1] = curve of first compound, second compound 0.1 µM
[2] = curve of first compound, second compound 0.316 µM
[3] = curve of first compound, second compound 1 µM
[4] = curve of first compound, second compound 3.16 µM
[5] = curve of first compound, second compound 10 µM
[6] = second compound 0.1 µM, first compound 0.00949 µM
[7] = second compound 0.1 µM, first compound 0.03 µM
[8] = second compound 0.1 µM, first compound 0.0949 µM
[9] = second compound 0.1 µM, first compound 0.3 µM
[10] = second compound 0.1 µM, first compound 0.949 µM
[11] = second compound 0.1 µM, first compound 3 µM
[12] = second compound 0.316 µM, first compound 0.00949 µM
[13] = second compound 0.316 µM, first compound 0.03 µM
[14] = second compound 0.316 µM, first compound 0.0949 µM
[15] = second compound 0.316 µM, first compound 0.3 µM
[16] = second compound 0.316 µM, first compound 0.949 µM
[17] = second compound 0.316 µM, first compound 3 µM
[18] = second compound 1 µM, first compound 0.00949 µM
[19] = second compound 1 µM, first compound 0.03 µM
[20] = second compound 1 µM, first compound 0.0949 µM
[21] = second compound 1 µM, first compound 0.3 µM
[22] = second compound 1 µM, first compound 0.949 µM
[23] = second compound 1 µM, first compound 3 µM
[24] = second compound 3.16 µM, first compound 0.00949 µM
[25] = second compound 3.16 µM, first compound 0.03 µM
[26] = second compound 3.16 µM, first compound 0.0949 µM
[27] = second compound 3.16 µM, first compound 0.3 µM
[28] = second compound 3.16 µM, first compound 0.949 µM
[29] = second compound 3.16 µM, first compound 3 µM
[30] = second compound 10 µM, first compound 0.00949 µM
[31] = second compound 10 µM, first compound 0.03 µM
[32] = second compound 10 µM, first compound 0.0949 µM
[33] = second compound 10 µM, first compound 0.3 µM
[34] = second compound 10 µM, first compound 0.949 µM
[35] = second compound 10 µM, first compound 3 µM
[36] = second compound 0.1 µM, first compound 0.0316 µM
[37] = second compound 0.1 µM, first compound 0.1 µM
[38] = second compound 0.1 µM, first compound 0.316 µM
[39] = second compound 0.1 µM, first compound 1 µM
[40] = second compound 0.316 µM, first compound 0.0316 µM
[41] = second compound 0.316 µM, first compound 0.1 µM
[42] = second compound 0.316 µM, first compound 0.316 µM
[43] = second compound 0.316 µM, first compound 1 µM
[44] = second compound 1 µM, first compound 0.0316 µM
[45] = second compound 1 µM, first compound 0.1 µM
[46] = second compound 1 µM, first compound 0.316 µM
[47] = second compound 1 µM, first compound 1 µM
[48] = second compound 3.16 µM, first compound 0.0316 µM
[49] = second compound 3.16 µM, first compound 0.1 µM
[50] = second compound 3.16 µM, first compound 0.316 µM
[51] = second compound 3.16 µM, first compound 1 µM
[52] = second compound 10 µM, first compound 0.0316 µM
[53] = second compound 10 µM, first compound 0.1 µM
[54] = second compound 10 µM, first compound 0.316 µM
[55] = second compound 10 µM, first compound 1 µM
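Note: drug exposure lasted 7 days starting on day 3 after seeding.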
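Throughout, for viability, T/C: luminescence viability as percent of DMSO vehicle wells = 100%.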

## Nc1ccccc1NC(=O)c1ccc(CNC(=O)OCc2cccnc2)cc1 + NC1CCC(NC2CC2c2ccccc2)CC1
[1]
  IC50: 1340 nM
[2]
  IC50: 1430 nM
[3]
  IC50: 1370 nM
[4]
  IC50: 1390 nM
[5]
  IC50: 1060 nM
[6]
  viability, T/C: 94.5%
[7]
  viability, T/C: 85%
[8]
  viability, T/C: 93.3%
[9]
  viability, T/C: 96.1%
[10]
  viability, T/C: 66.1%
[11]
  viability, T/C: 12.3%
[12]
  viability, T/C: 93.5%
[13]
  viability, T/C: 87.5%
[14]
  viability, T/C: 91.5%
[15]
  viability, T/C: 95%
[16]
  viability, T/C: 73.1%
[17]
  viability, T/C: 9.06%
[18]
  viability, T/C: 93.2%
[19]
  viability, T/C: 90.9%
[20]
  viability, T/C: 98%
[21]
  viability, T/C: 95.9%
[22]
  viability, T/C: 69.5%
[23]
  viability, T/C: 9.07%
[24]
  viability, T/C: 84.6%
[25]
  viability, T/C: 84.2%
[26]
  viability, T/C: 87.8%
[27]
  viability, T/C: 85.5%
[28]
  viability, T/C: 72%
[29]
  viability, T/C: 5.75%
[30]
  viability, T/C: 88.7%
[31]
  viability, T/C: 81.2%
[32]
  viability, T/C: 86.2%
[33]
  viability, T/C: 87.3%
[34]
  viability, T/C: 55.2%
[35]
  viability, T/C: 1.52%

## CCN(c1cc(-c2ccc(CN3CCOCC3)cc2)cc(C(=O)NCc2c(C)cc(C)[nH]c2=O)c1C)C1CCOCC1 + NC1CC1c1ccc(-c2cccc(O)c2)cc1
[1]
  IC50: > 3000 nM
[2]
  IC50: > 3000 nM
[3]
  IC50: > 3000 nM
[4]
  IC50: > 3000 nM
[5]
  IC50: > 3000 nM
[6]
  viability, T/C: 90.2%
[7]
  viability, T/C: 96.8%
[8]
  viability, T/C: 99%
[9]
  viability, T/C: 98%
[10]
  viability, T/C: 89%
[11]
  viability, T/C: 84.9%
[12]
  viability, T/C: 89%
[13]
  viability, T/C: 96.8%
[14]
  viability, T/C: 96.5%
[15]
  viability, T/C: 105%
[16]
  viability, T/C: 93%
[17]
  viability, T/C: 99.2%
[18]
  viability, T/C: 91.4%
[19]
  viability, T/C: 89.3%
[20]
  viability, T/C: 97.7%
[21]
  viability, T/C: 88.7%
[22]
  viability, T/C: 87.7%
[23]
  viability, T/C: 86.4%
[24]
  viability, T/C: 102%
[25]
  viability, T/C: 94%
[26]
  viability, T/C: 91.6%
[27]
  viability, T/C: 103%
[28]
  viability, T/C: 95.1%
[29]
  viability, T/C: 97.7%
[30]
  viability, T/C: 99.9%
[31]
  viability, T/C: 101%
[32]
  viability, T/C: 91.4%
[33]
  viability, T/C: 94.7%
[34]
  viability, T/C: 97.8%
[35]
  viability, T/C: 92.6%

## CC1COCCN1c1cc(C2(S(C)(=N)=O)CC2)nc(-c2ccnc3[nH]ccc23)n1 (stereo unspecified) + NC1CC1c1ccc(-c2cccc(O)c2)cc1
[1]
  IC50: 2740 nM
[2]
  IC50: 2630 nM
[3]
  IC50: 2490 nM
[4]
  IC50: 2290 nM
[5]
  IC50: 2110 nM
[36]
  viability, T/C: 93.1%
[37]
  viability, T/C: 93.2%
[38]
  viability, T/C: 94.2%
[39]
  viability, T/C: 74.6%
Second compound 0.1 µM, first compound 3.16 µM
  viability, T/C: 47.2%
Second compound 0.1 µM, first compound 10 µM
  viability, T/C: 39.7%
[40]
  viability, T/C: 102%
[41]
  viability, T/C: 91.2%
[42]
  viability, T/C: 97.2%
[43]
  viability, T/C: 79.9%
Second compound 0.316 µM, first compound 3.16 µM
  viability, T/C: 44.4%
Second compound 0.316 µM, first compound 10 µM
  viability, T/C: 43.5%
[44]
  viability, T/C: 87.9%
[45]
  viability, T/C: 84.4%
[46]
  viability, T/C: 93.4%
[47]
  viability, T/C: 75%
Second compound 1 µM, first compound 3.16 µM
  viability, T/C: 44.1%
Second compound 1 µM, first compound 10 µM
  viability, T/C: 40.5%
[48]
  viability, T/C: 88.4%
[49]
  viability, T/C: 93.4%
[50]
  viability, T/C: 97.1%
[51]
  viability, T/C: 77.2%
Second compound 3.16 µM, first compound 3.16 µM
  viability, T/C: 39.7%
Second compound 3.16 µM, first compound 10 µM
  viability, T/C: 38.9%
[52]
  viability, T/C: 104%
[53]
  viability, T/C: 87.2%
[54]
  viability, T/C: 101%
[55]
  viability, T/C: 75.5%
Second compound 10 µM, first compound 3.16 µM
  viability, T/C: 34.5%
Second compound 10 µM, first compound 10 µM
  viability, T/C: 37.7%

## O=C(C=Cc1cccc(S(=O)(=O)Nc2ccccc2)c1)NO
Compound 0.00949 µM
  viability, T/C: 90.4% and 96.6%
Compound 0.03 µM
  viability, T/C: 104% and 108%
Compound 0.0949 µM
  viability, T/C: 82% and 112%
Compound 0.3 µM
  viability, T/C: 64.3% and 65.9%
Compound 0.949 µM
  viability, T/C: 12.3% and 17.6%
Compound 3 µM
  viability, T/C: 0.4% and 0.43%
Curve of compound
  IC50: 399 nM and 444 nM

## Nc1ncn(C2CC(O)C(CO)O2)c(=O)n1 (stereo unspecified) + NC1CCC(NC2CC2c2ccccc2)CC1
[1]
  IC50: > 1000 nM
[2]
  IC50: > 1000 nM
[3]
  IC50: > 1000 nM
[4]
  IC50: > 1000 nM
[5]
  IC50: > 1000 nM
Second compound 0.1 µM, first compound 0.00316 µM
  viability, T/C: 91.5%
Second compound 0.1 µM, first compound 0.01 µM
  viability, T/C: 91.2%
[36]
  viability, T/C: 95.6%
[37]
  viability, T/C: 85.5%
[38]
  viability, T/C: 83.1%
[39]
  viability, T/C: 85.2%
Second compound 0.316 µM, first compound 0.00316 µM
  viability, T/C: 93.6%
Second compound 0.316 µM, first compound 0.01 µM
  viability, T/C: 93.1%
[40]
  viability, T/C: 90.2%
[41]
  viability, T/C: 92.2%
[42]
  viability, T/C: 83%
[43]
  viability, T/C: 84.7%
Second compound 1 µM, first compound 0.00316 µM
  viability, T/C: 88.6%
Second compound 1 µM, first compound 0.01 µM
  viability, T/C: 94.5%
[44]
  viability, T/C: 93.6%
[45]
  viability, T/C: 86.4%
[46]
  viability, T/C: 90.1%
[47]
  viability, T/C: 85.3%
Second compound 3.16 µM, first compound 0.00316 µM
  viability, T/C: 87.5%
Second compound 3.16 µM, first compound 0.01 µM
  viability, T/C: 81.1%
[48]
  viability, T/C: 79.7%
[49]
  viability, T/C: 91.4%
[50]
  viability, T/C: 85.9%
[51]
  viability, T/C: 88.9%
Second compound 10 µM, first compound 0.00316 µM
  viability, T/C: 84.3%
Second compound 10 µM, first compound 0.01 µM
  viability, T/C: 86.9%
[52]
  viability, T/C: 85.3%
[53]
  viability, T/C: 88.4%
[54]
  viability, T/C: 88.2%
[55]
  viability, T/C: 80.5%

## CC(C)CC(NC(=O)C(Cc1ccccc1)NC(=O)c1cnccn1)B(O)O (stereo unspecified)
Compound 0.000316 µM
  viability, T/C: 90.9% and 115%
Compound 0.001 µM
  viability, T/C: 2.15% and 1.03%
Compound 0.00316 µM
  viability, T/C: 0.11% and 0.13%
Compound 0.01 µM
  viability, T/C: 0.1% and 0.12%
Compound 0.0316 µM
  viability, T/C: 0.09% and 0.13%
Compound 0.1 µM
  viability, T/C: 0.14% and 0.2%
Curve of compound
  IC50: 0.538 nM and 0.61 nM

## Nc1ccn(C2OC(CO)C(O)C2(F)F)c(=O)n1 (stereo unspecified)
Compound 0.000949 µM
  viability, T/C: 90.2% and 96.5%
Compound 0.003 µM
  viability, T/C: 59.8% and 55%
Compound 0.00949 µM
  viability, T/C: 37.2% and 35.9%
Compound 0.03 µM
  viability, T/C: 36.1% and 29.9%
Compound 0.0949 µM
  viability, T/C: 29.3% and 22%
Compound 0.3 µM
  viability, T/C: 19.9% and 16.3%
Curve of compound
  IC50: 5.5 nM and 4.42 nM
